We go through one molecule from US8378098B2, “Imidazol[1,2-α]quinoxalines and derivatives for the treatment of cancers” (Universite de Montpellier I, priority 2007, dated 2013).

In data set [1] the test system is M4Be (melanoma). Briefly: in vitro cytotoxicity on M4Be melanoma line. The data set is classed as cell-based. The settings on record: Homo sapiens, Table 2, unit inferred, read-out: IC50 M4Be. The text has this: (§1) Several human carcinoma cell lines were used: • Lines A375, M4Be, RPMI7591 from human melanoma. • Line LS174T from colon carcinoma. • Line A 2780 from ovarian carcinoma. • The Raji line from B lymphoma. • Line MCF7 from breast carcinoma.

For data set [2], the system named is RPMI7591 (melanoma). Briefly: in vitro cytotoxicity on RPMI7591 melanoma line. The class given is cell-based. Conditions: Homo sapiens; Table 2; unit inferred; read-out: IC50 RPMI7591.
Description: as §1

Data set [3] concerns MCF7 (breast cancer). In words: in vitro cytotoxicity on MCF7 breast cancer line. The data set is classed as cell-based. Conditions: Homo sapiens, Table 2, unit inferred.
Description: as §1

Data set [4] has as its system LS174T (colon cancer). In words: in vitro cytotoxicity on LS174T colon cancer line. The class given is cell-based. The settings on record: Homo sapiens, Table 2, unit inferred.
Description: as §1

Data set [5] deals with Raji (B lymphoma). Briefly: in vitro cytotoxicity on Raji B lymphoma line. The class given is cell-based, human. The settings on record: Homo sapiens, Raji; Table 2; unit inferred.
Description: as §1

Data set [6] in a line: determination of the lethal dose 50 (LD50) in the mouse. The class given is in vivo.
The nature of data set [7]: in vivo. Conditions: rat, iv, 5 mg/kg. As for the experimental part: (§2) Methods of assaying compounds EAPB0203, EAPB0503 and EAPB0603 by high performance liquid chromatography and detection by mass spectrometry (LC/ESI-MS) were developed and validated in human and rat plasmas. Pre-treatment of the samples consists of a liquid solid extraction preceded by precipitation of plasma proteins in acid medium. The chromatographic column used is C8 Zorbax eclipse XDB and the mobile phase (gradient) a mixture of acetonitrile and formate buffer (pH 3) (flow rate, 0.8 ml/min). The […] from 92 to 113%. The extraction coefficients are higher than 72%. The quantification limit is 5 μg/l for all analytes. Stability tests of the compounds in the matrices were also carried out. These methods were used to determine the pharmacokinetic parameters of compounds EAPB0203, EAPB0503 and EAPB0603 in the rat. The lethal doses 50% of compounds EAPB0203 and EAPB0503 are respectively 14.8 and 7.6 mg/kg.

Data set [8] is described as follows: lethal doses 50% reported in the pharmacokinetic study. The class given is in vivo. Conditions: species and route not stated in the sentence (rat study). As for the experimental part: as §2
Data set [9] relates to HTLV-I-positive human T lines (HuT-102 and C8166, and MT2). Briefly: cell growth of HTLV-I-positive human T lines (CellTiter 96, trypan blue exclusion). Conditions: 1 to 10 μM, 24-96 h. The data set is classed as cell-based. As for the experimental part:
(§3) FIG. 2: HTLV-I-positive and HTLV-I-negative malignant human cell lines are sensitive to EAPB0203, but activated or inactivated normal T lymphocytes are resistant. Effects of EAPB0203 on the growth of human T lines not infected by HTLV-I (CEM, Jurkatt, Molt-4 and HuT-78), HTLV-I-positive human T lines (HuT-102 and C8166, and MT2), and normal lymphocytes at rest or activated by PHA. The activated normal PBMC were supplemented with 2% PHA. EAPB0203 was added at the concentrations indicated in mole/l for 24-96 h. Cell growth is analyzed with the “CellTiter 96®” nonradioactive cell growth kit. The results are expressed as a percentage of the control (0.1% DMSO) and represent the mean of the results obtained in three independent experiments.
(§4) The in vitro activity of EAPB0203 on adult T-cell leukemia (ATL) transformed by retrovirus HTLV-I (HuT-102, MT2 . . . ) and malignant HTLV-I-negative T-cells (CEM, Jurkatt . . . ) was evaluated. Initially, the effect of EAPB0203 on cell growth of these lines was evaluated by two techniques, the nonradioactive “CellTiter 96®” cell growth kit and the trypan blue exclusion method.

Data set [10] has as its system human T lines not infected by HTLV-I (CEM, Jurkatt, Molt-4 and HuT-78). In words: cell growth of human T lines not infected by HTLV-I (CellTiter 96, trypan blue exclusion). The data set is classed as cell-based. Conditions: 1 to 10 μM, 24-96 h. As for the experimental part:
as §3, §4

Data set [11] deals with leukaemic cells derived from two patients with ATL. Briefly: cell proliferation of leukaemic cells derived from patients with ATL. The class given is cell-based, human.
Data set [12] relates to normal lymphocytes activated or not activated by PHA. Briefly: growth of normal lymphocytes at rest or activated by PHA. The settings on record: two healthy subjects. The data set is classed as cell-based, human. On the procedure:
as §3, §4

The test system of data set [13] is CEM, HuT-102, MT2, and Jurkatt cells. Briefly: cell cycle analysis by flow cytometry (propidium iodide). The data set is classed as cell-based, human. On the procedure:
(A) Effects of EAPB0203 on the distribution of the cell cycle of CEM, HuT-102, MT2, and Jurkatt cells. The cells treated by EAPB0203 were marked with propidium iodide ([…]) and analysis of the cellular cycle was carried out by FACScan flow cytometry. (b) The pre-G1 percentage represents the apoptotic cells. (c) The cells in cycle, the sum of phases (S+G2/M), are represented as a percentage of non-apoptotic cells. The results represent two independent experiments.
The mechanisms of inhibition of cell proliferation caused by EAPB0203 in the cell lines studied were determined by flow cytometry. This study evaluated the distribution of cells in the various phases of the cell cycle. […] This pre-G0/G1 peak corresponds to cells whose DNA content is decreased by loss of cleaved DNA fragments during cell death (FIG. 3).
For orientation: Flow cytometry measures light scatter and fluorescence of single cells or particles in a stream.

Data set [14] relates to CEM and HuT-102 cells; HuT-102 and MT2 cells. In words: protein expression by western blot (caspases, Bcl-2 family, cell cycle regulators). The class given is cell-based, human. The text has this: Proteinic cell extracts were obtained after various treatments and evaluation of the expression of certain proteins was studied by western blot.
Activation of the mitochondrial route is controlled by members of the Bcl-2 family. […] In the cell lines infected or not infected by HTLV-I, the effect of EAPB0203 on regulators of the cell cycle is studied.
(In general: In western blotting, separated proteins are transferred to a membrane and probed.)

In data set [15] the test system is treated cell lines. In words: mitochondrial route of apoptosis (Rhodamine 123 transmembrane potential, cytochrome C localization). The class given is cell-based, human. An excerpt: Mitochondria play a central role in apoptotic mechanisms. The first detectable cellular disturbance during the apoptotic process is a reduction in mitochondrial transmembrane potential.
Indeed, activation of the intrinsic mitochondrial route in the cells studied is shown.

Each structure is given as a SMILES string. Entries after “also recorded” stand apart in the source; their conditions may differ.

In general, IC50 refers to the concentration that gives 50% inhibition. The LD50 is the dose expected to kill half of the subjects tested. The term Vd denotes a proportionality between amount in the body and measured concentration, not a real space. Broadly, the clearance is the volume of plasma or blood freed of the substance per unit of time. A higher clearance goes with a high capacity for elimination. Broadly, the half-life is the time needed for the level to fall by half in the phase considered. Low values mean rapid decline, high ones slow decline. With `CNc1nc2ccccc2n2c(CCc3ccccc3)cnc12` [EAPB0203, N-methyl-1-(2-phenylethyl)imidazo[1,2-a]quinoxalin-4-amine], the IC50 in data set [1] was determined as 2.58 ± 0.4 µM; in data set [2], 4.23 ± 0.48 µM; in [3], 1.08 ± 0.46 µM; in data set [4] it was 4.12 ± 0.67 µM; in data set [5] it was 6.23 ± 0.06 µM. Also, the “apparent toxicity after 48 h at the highest doses” value in [6] is on record as “did not display any apparent toxicity”. The LD50 at 48 h in data set [6] (in vivo, doses 30, 300 and 450 mg/kg, 48 h) was above 450 mg/kg. The molecule further displayed a volume of distribution (Vd) in data set [7] of 10.6 L/kg. In data set [7], the “area under the curve of plasma concentrations” value was 870 ng·h/mL. The clearance in data set [7] is 48.3 mL/min/kg. This molecule had a half-life in data set [7] of 2.6 h. For the same molecule, the “lethal doses 50%” value in [8] was found to be 14.8 mg/kg. The “growth of ATL cells (HTLV-I-positive)” value in [9] is recorded as “sensitive; also recorded: progressive, dose-dependent inhibition”. Further, the “growth of malignant T-cells not associated with HTLV-I” value in data set [10] is “sensitive; also recorded: progressive, dose-dependent inhibition”. Moreover, the “cell proliferation of leukaemic cells from ATL patients” value in data set [11] is given as “induced inhibition of cell proliferation”. Also, in data set [12], the “growth of normal lymphocytes” value was “completely resistant”. The pre-G0/G1 apoptotic population result in data set [13] is listed as “presence of a pre-G0/G1 apoptotic population”. Also, the “distribution of cells in the phases of the cell cycle” value in [13] (propidium iodide) was “induces the termination of the cell cycle in phase G2/M; also recorded: progressive accumulation of cells in phase G2”. Besides, in data set [14] (CEM and HuT-102 cells, western blot), the “caspases (cleavage of PARP, procaspase-3, -8, -9)” value was “activation of caspases”. For the same molecule, the “expression of proteins p21 and p53” value in [14] (HuT-102 and MT2 cells (HTLV-I-positive)) was “significant increase”. For the same molecule, the “apoptosis under co-treatment by caspase inhibitor zVAD” value in data set [14] (co-treatment with zVAD) was “partial protection”. Besides, the “expression of IAP-1 proteins and bcl-xL” value in [14] (western blot) is “significant reduction”. Also, the mitochondrial transmembrane potential entry in data set [15] (Rhodamine 123, flow cytometry) is given as “drop in the mitochondrial transmembrane potential”. Moreover, the “sub-cellular localization of cytochrome C” value in data set [15] (treated cell lines) was “presence of cytochrome C in the cytoplasm”.
